Test results: PubChem BioAssay (NCI)
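Exposure lasted 48 hours, with cells grown in 96-well plates and compounds tested at five concentrations. GI50 marks 50% less growth. Definition used: TGI = concentration required for complete inhibition of growth.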

Legend:
Assay in all cases: NCI-60 cell line screen, 48 h
786-0 renal = tested on: 786-0 renal
A498 renal = tested on: A498 renal
A549 NSCLC = tested on: A549 NSCLC
ACHN renal = tested on: ACHN renal
BT-549 breast = tested on: BT-549 breast
CAKI-1 renal = tested on: CAKI-1 renal
CCRF-CEM leukemia = tested on: CCRF-CEM leukemia
COLO 205 colon = tested on: COLO 205 colon
DU-145 prostate = tested on: DU-145 prostate
EKVX NSCLC = tested on: EKVX NSCLC
HCC-2998 colon = tested on: HCC-2998 colon
HCT-116 colon = tested on: HCT-116 colon
HCT-15 colon = tested on: HCT-15 colon
HL-60(TB) leukemia = tested on: HL-60(TB) leukemia
HOP-62 NSCLC = tested on: HOP-62 NSCLC
HOP-92 NSCLC = tested on: HOP-92 NSCLC
HS 578T breast = tested on: HS 578T breast
HT29 colon = tested on: HT29 colon
IGROV1 ovarian = tested on: IGROV1 ovarian
K-562 leukemia = tested on: K-562 leukemia
KM12 colon = tested on: KM12 colon
LOX IMVI melanoma = tested on: LOX IMVI melanoma
M14 melanoma = tested on: M14 melanoma
MCF7 breast = tested on: MCF7 breast
MDA-MB-231 breast = tested on: MDA-MB-231 breast
MDA-MB-435 = tested on: MDA-MB-435
MOLT-4 leukemia = tested on: MOLT-4 leukemia
NCI-H226 lung = tested on: NCI-H226 lung
NCI-H23 lung = tested on: NCI-H23 lung
NCI-H460 lung = tested on: NCI-H460 lung
NCI-H522 lung = tested on: NCI-H522 lung
NCI/ADR-RES ovarian = tested on: NCI/ADR-RES ovarian
OVCAR-3 ovarian = tested on: OVCAR-3 ovarian
OVCAR-4 ovarian = tested on: OVCAR-4 ovarian
OVCAR-5 ovarian = tested on: OVCAR-5 ovarian
OVCAR-8 ovarian = tested on: OVCAR-8 ovarian
PC-3 prostate = tested on: PC-3 prostate
RPMI-8226 leukemia = tested on: RPMI-8226 leukemia
RXF 393 renal = tested on: RXF 393 renal
SF-268 CNS = tested on: SF-268 CNS
SF-295 CNS = tested on: SF-295 CNS
SF-539 CNS = tested on: SF-539 CNS
SK-MEL-2 melanoma = tested on: SK-MEL-2 melanoma
SK-MEL-28 melanoma = tested on: SK-MEL-28 melanoma
SK-MEL-5 melanoma = tested on: SK-MEL-5 melanoma
SK-OV-3 ovarian = tested on: SK-OV-3 ovarian
SN12C renal = tested on: SN12C renal
SNB-19 CNS = tested on: SNB-19 CNS
SNB-75 CNS = tested on: SNB-75 CNS
SR leukemia = tested on: SR leukemia
SW-620 colon = tested on: SW-620 colon
T-47D breast = tested on: T-47D breast
TK-10 renal = tested on: TK-10 renal
U251 CNS = tested on: U251 CNS
UACC-257 melanoma = tested on: UACC-257 melanoma
UACC-62 melanoma = tested on: UACC-62 melanoma
UO-31 renal = tested on: UO-31 renal

CCN(CC)CCOc1ccc2c(C)c(C(=O)OC)oc2c1C(=O)/C=C/c1ccc(OC)cc1
GI50 (786-0 renal): 16.6 µM | TGI (786-0 renal): > 45.7 µM | GI50 (A498 renal): 22.8 µM | TGI (A498 renal): 44.4 µM | GI50 (A549 NSCLC): 17.6 µM | TGI (A549 NSCLC): 40.6 µM | GI50 (ACHN renal): 1.85 µM | TGI (ACHN renal): 5.25 µM | GI50 (BT-549 breast): 20.6 µM | TGI (BT-549 breast): 39.4 µM | GI50 (CAKI-1 renal): 3.82 µM | TGI (CAKI-1 renal): 10.7 µM | GI50 (CCRF-CEM leukemia): 1.35 µM | TGI (CCRF-CEM leukemia): 4.52 µM | GI50 (COLO 205 colon): 4.03 µM | GI50 (DU-145 prostate): 18.5 µM | TGI (DU-145 prostate): 34.7 µM | GI50 (EKVX NSCLC): 19.7 µM | TGI (EKVX NSCLC): 36.5 µM | GI50 (HCC-2998 colon): 1.86 µM | TGI (HCC-2998 colon): 3.72 µM | GI50 (HCT-116 colon): 57.8 µM | TGI (HCT-116 colon): > 100 µM | GI50 (HCT-15 colon): 1.31 µM | TGI (HCT-15 colon): 3.57 µM | GI50 (HL-60(TB) leukemia): 1.94 µM | TGI (HL-60(TB) leukemia): 6.11 µM | GI50 (HOP-62 NSCLC): 28.5 µM | TGI (HOP-62 NSCLC): > 55.6 µM | GI50 (HOP-92 NSCLC): 0.551 µM | TGI (HOP-92 NSCLC): 2.77 µM | GI50 (HS 578T breast): 24.1 µM | TGI (HS 578T breast): 51.4 µM | GI50 (HT29 colon): 1.9 µM | TGI (HT29 colon): 13 µM | GI50 (IGROV1 ovarian): 0.246 µM | TGI (IGROV1 ovarian): 2.75 µM | GI50 (K-562 leukemia): 1.13 µM | TGI (K-562 leukemia): > 20.1 µM | GI50 (KM12 colon): 1.76 µM | TGI (KM12 colon): 3.96 µM | GI50 (LOX IMVI melanoma): 1.34 µM | TGI (LOX IMVI melanoma): 2.81 µM | GI50 (M14 melanoma): 25.4 µM | TGI (M14 melanoma): > 48.7 µM | GI50 (MCF7 breast): 2.76 µM | TGI (MCF7 breast): > 22.7 µM | GI50 (MDA-MB-231 breast): 3.79 µM | TGI (MDA-MB-231 breast): 11.2 µM | GI50 (MDA-MB-435): 5.54 µM | TGI (MDA-MB-435): 15.8 µM | GI50 (MOLT-4 leukemia): 1.54 µM | TGI (MOLT-4 leukemia): 6.58 µM | GI50 (NCI-H226 lung): 25.3 µM | TGI (NCI-H226 lung): 44.9 µM | GI50 (NCI-H23 lung): 2.93 µM | TGI (NCI-H23 lung): 8.34 µM | GI50 (NCI-H460 lung): 3.65 µM | TGI (NCI-H460 lung): > 67.4 µM | GI50 (NCI-H522 lung): 4.3 µM | TGI (NCI-H522 lung): 15.2 µM | GI50 (NCI/ADR-RES ovarian): 2.58 µM | TGI (NCI/ADR-RES ovarian): 6.53 µM | GI50 (OVCAR-3 ovarian): 4.36 µM | TGI (OVCAR-3 ovarian): 12.2 µM | GI50 (OVCAR-4 ovarian): 2.43 µM | TGI (OVCAR-4 ovarian): 6.85 µM | GI50 (OVCAR-5 ovarian): 2.32 µM | TGI (OVCAR-5 ovarian): 6.99 µM | GI50 (OVCAR-8 ovarian): 20.2 µM | TGI (OVCAR-8 ovarian): 40.1 µM | GI50 (PC-3 prostate): 2.01 µM | TGI (PC-3 prostate): 5.46 µM | GI50 (RPMI-8226 leukemia): 1.58 µM | TGI (RPMI-8226 leukemia): 4.42 µM | GI50 (RXF 393 renal): 13.8 µM | TGI (RXF 393 renal): 31.3 µM | GI50 (SF-268 CNS): 3.75 µM | TGI (SF-268 CNS): > 28.1 µM | GI50 (SF-295 CNS): 6.76 µM | TGI (SF-295 CNS): 23.7 µM | GI50 (SF-539 CNS): 16.3 µM | TGI (SF-539 CNS): 32.2 µM | GI50 (SK-MEL-2 melanoma): 9.99 µM | TGI (SK-MEL-2 melanoma): > 23.2 µM | GI50 (SK-MEL-28 melanoma): 2.89 µM | TGI (SK-MEL-28 melanoma): 11.2 µM | GI50 (SK-MEL-5 melanoma): 20.4 µM | TGI (SK-MEL-5 melanoma): 37.2 µM | GI50 (SK-OV-3 ovarian): 4.12 µM | TGI (SK-OV-3 ovarian): 13.8 µM | GI50 (SN12C renal): 0.166 µM | TGI (SN12C renal): 2.66 µM | GI50 (SNB-19 CNS): 4.86 µM | TGI (SNB-19 CNS): 13.8 µM | GI50 (SNB-75 CNS): 2.81 µM | TGI (SNB-75 CNS): 8.44 µM | GI50 (SR leukemia): 0.565 µM | TGI (SR leukemia): 2.95 µM | GI50 (SW-620 colon): 22.7 µM | TGI (SW-620 colon): 47.7 µM | GI50 (T-47D breast): 12.9 µM | TGI (T-47D breast): 38.5 µM | GI50 (TK-10 renal): 1.94 µM | TGI (TK-10 renal): 5.14 µM | GI50 (U251 CNS): 1.75 µM | TGI (U251 CNS): 4.44 µM | GI50 (UACC-257 melanoma): 19.8 µM | TGI (UACC-257 melanoma): 36.9 µM | GI50 (UACC-62 melanoma): 2.24 µM | TGI (UACC-62 melanoma): 7.75 µM | GI50 (UO-31 renal): 1.45 µM
